Source: patent US11484598B1, “Pleuromulin rhein ester with anti-drug resistant bacteria activity and a method of preparing the same” (XI'AN KANGYUANSHENG BIOMEDICAL TECHNOLOGY CO., LTD., priority 2021, dated 2022)
≈ marks a conversion by molar mass, not a printed value. One block for each molecule: values may come before it.

What was measured:
Assay type in all cases: cell-based
drug-resistant bacteria = assay: Antibacterial activity test, summary over all experimental strains; conditions: text summary of FIG. 1-5 and Table 1
Protocol: (§1) The minimal inhibitory concentration (MIC) of the compounds as determined by microbroth dilution method was measured with ceftazidime and vancomycin as positive control.
(§2) The experimental strains included drug-resistant gram-positive bacteria: methicillin-resistant Staphylococcus aureus MRSA 18-575; drug-resistant gram-negative bacteria: multi-drug-resistant Pseudomonas aeruginosa MDR-PA 18-126, 18-756, Carbapenem-resistant Acinetobacter baumannii CR-AB 18-184, 18-560. The experimental strains were all donated by Huashan Hospital Affiliated to Fudan University (Fudan University Antibiotic Research Institute), and used after being identified by conventional methods.
(§3) Preparation of MHB medium: 20.0 g NMB medium was added to 1 L distilled water, boiled until completely dissolved, packed in conical bottles and sterilized at 121° C. for 15 min.
The experimental strain was cultured to the logarithmic growth phase: under aseptic condition, the experimental strain was inoculated into 100 mL NMB medium and incubated in a constant temperature and humidity incubator at 37° C. for 20-22 hours. […]

[1] = test system: methicillin-resistant Staphylococcus aureus MRSA 18-575; assay: MIC by microbroth dilution method, MRSA 18-575; conditions: for Minimum bacteriostatic concentration: strain MRSA 18-575, 37° C., 20-22 hours
Protocol: as §1, §2, §3
(§4) The experimental strain was cultured to the logarithmic growth phase: under aseptic condition, the experimental strain was inoculated into 100 mL NMB medium and incubated in a constant temperature and humidity incubator at 37° C. for 20-22 hours.
(§5) Preparation of storage solution: weighing the sample to be tested, dissolving it with 1% DMSO solution, preparing a storage solution with a concentration of 2560 μg/mL, weighing a positive reference substance, dissolving it with aseptic distilled water, and configuring a stock solution with a concentration of 2560 μg/mL.
(§6) Preparation of bacterial suspension: under aseptic condition, the experimental strains cultured to logarithmic growth phase were adjusted to 0.5 MCF turbidity standard with MHB medium and diluted according to 1:10, and the bacterial suspension with concentration of 10^6 CFU/mL was prepared for standby.
(§7) Stock solution dilution and inoculation of experimental strains: under aseptic conditions, diluting the stock solution to a solution of 256 μg/mL, taking a sterile 96-well plate, adding 100 μL of MHB medium to each well except for the first and second wells; adding 100 μL of positive control solution to the first well, and adding 100 μL of compound sample solution to the second and third wells; mixing the sample solution in the 3 wells with the medium, and then pipetting 100 μL to the 4th well, and then pipetting 100 μL to the 5th well after mixing, and then diluting to the 9th well in a series of times, and drawing 100 μL from the 9th well and discard, the 10th well is a growth control without drugs; then, adding 100 μL of the above-prepared bacterial suspension to each well to make the final bacterial concentration of each well 5×10^5 CFU/mL; the positive control concentration was 128 μg/mL, the concentrations of the sample solution were 128, 64, 32, 16, 8, 4, 2, 1 μg/mL.
(§8) Incubation: covering the 96-well plate inoculated with the experimental strains, and incubating in a constant temperature and humidity box at 37° C. for 20-22 hours.

[2] = test system: Carbapenem-resistant Acinetobacter baumannii CR-AB 18-184; assay: MIC by microbroth dilution method, CR-AB 18-184; conditions: for Minimum bacteriostatic concentration: strain CR-AB 18-184, 37° C., 20-22 hours
Protocol: as §1, §2, §3, §4, §5, §6, §7, §8

[3] = test system: multi-drug-resistant Pseudomonas aeruginosa MDR-PA 18-756; assay: MIC by microbroth dilution method, MDR-PA 18-756; conditions: strain MDR-PA 18-756; 37° C., 20-22 hours
Protocol: as §1, §2, §3, §4, §5, §6
as §7, with “μg/mL. […]” for “μg/mL.”

[4] = test system: multi-drug-resistant Pseudomonas aeruginosa MDR-PA 18-126; assay: MIC by microbroth dilution method, MDR-PA 18-126; conditions: for Minimum bacteriostatic concentration: strain MDR-PA 18-126, 37° C., 20-22 hours
Protocol: as §1, §2, §3, §4, §5, §6, §7, §8

[5] = test system: Carbapenem-resistant Acinetobacter baumannii CR-AB 18-560; assay: MIC by microbroth dilution method, CR-AB 18-560; conditions: strain CR-AB 18-560; 37° C., 20-22 hours
Protocol: as §1, §2, §3, §4, §5, §6
as §7, with “μg/mL. […]” for “μg/mL.”

Structure (SMILES): O=C(O)c1cc(O)c2c(c1)C(=O)c1cccc(O)c1C2=O [Rhein]
inhibitory effect on drug-resistant bacteria (drug-resistant bacteria): no inhibitory effect
Minimum bacteriostatic concentration [1]: >128 µg/mL
Minimum bacteriostatic concentration [2]: >128 µg/mL
Minimum bacteriostatic concentration [3]: >128 µg/mL
Minimum bacteriostatic concentration [4]: >128 µg/mL
Minimum bacteriostatic concentration [5]: >128 µg/mL

Structure (SMILES): CC(C)(O/N=C(\C(=O)N[C@@H]1C(=O)N2C(C(=O)[O-])=C(C[n+]3ccccc3)CS[C@H]12)c1csc(N)n1)C(=O)O [Ceftazidime]
Minimum bacteriostatic concentration [1]: 128 µg/mL
Minimum bacteriostatic concentration [2]: 128 µg/mL
Minimum bacteriostatic concentration [3]: 128 µg/mL
Minimum bacteriostatic concentration [4]: 128 µg/mL
Minimum bacteriostatic concentration [5]: 128 µg/mL

Structure (SMILES): CN[C@H](CC(C)C)C(=O)N[C@H]1C(=O)N[C@@H](CC(N)=O)C(=O)N[C@H]2C(=O)N[C@H]3C(=O)N[C@H](C(=O)N[C@H](C(=O)O)c4cc(O)cc(O)c4-c4cc3ccc4O)[C@H](O)c3ccc(c(Cl)c3)Oc3cc2cc(c3O[C@@H]2O[C@H](CO)[C@@H](O)[C@H](O)[C@H]2O[C@H]2C[C@](C)(N)[C@H](O)[C@H](C)O2)Oc2ccc(cc2Cl)[C@H]1O [Vancomycin]
Minimum bacteriostatic concentration [1]: 512 µg/mL

MIC ([1]; Staphylococcus aureus, MRSA): 64 mg/L (≈ 99.3 µM)
MIC ([2]; Acinetobacter baumannii, CR-AB, strain number not stated (64 matches 18-184)): 64 mg/L (≈ 99.3 µM)
MIC ([4]; Pseudomonas aeruginosa, MDR-PA, strain number not stated (64 matches 18-126)): 64 mg/L (≈ 99.3 µM)
Structure (SMILES): C=C[C@@]1(C)C[C@H](OC(=O)COC(=O)c2cc(O)c3c(c2)C(=O)c2cccc(O)c2C3=O)[C@]2(C)C3C(=O)CC[C@]3(CC[C@@H]2C)[C@H](C)[C@H]1O (some centres unmarked) [Pleuromulin rhein ester]
Minimum bacteriostatic concentration [1]: 64 µg/mL
Minimum bacteriostatic concentration [2]: 64 µg/mL
Minimum bacteriostatic concentration [3]: >128 µg/mL
Minimum bacteriostatic concentration [4]: 64 µg/mL
Minimum bacteriostatic concentration [5]: >128 µg/mL

Structure (SMILES): C=C[C@]1(C)C[C@@H](OC(=O)CO)[C@]2(C)[C@H](C)CC[C@]3(CCC(=O)[C@H]32)[C@@H](C)[C@@H]1O [Pleuromulin]
inhibitory effect on drug-resistant bacteria (drug-resistant bacteria): no inhibitory effect
Minimum bacteriostatic concentration [1]: >128 µg/mL
Minimum bacteriostatic concentration [2]: >128 µg/mL
Minimum bacteriostatic concentration [3]: >128 µg/mL
Minimum bacteriostatic concentration [4]: >128 µg/mL
Minimum bacteriostatic concentration [5]: >128 µg/mL
